In patent US20240391965A1, “STAPLED ANTIMICROBIAL PEPTIDES (STAMPS) AND USES THEREOF” (Lytica Therapeutics, Inc., priority 2021, published 2024):
≈ marks a conversion by molar mass, not a printed value. Starred links: 1 amine or outer side, 2 acyl side, 3 side chain; linkers in the order of their positions; H or OH if unused. Positions of bridges follow the written chain, without caps; N, C: chain ends. Residues, ends and D or L forms follow the SMILES beside them. 2,2'Bipyridine(5,5'-diCH2) = c1cc(-c2ccc(C[*:2])cn2)ncc1C[*:1]; Naphthalene(2,6-diCH2) = c1cc2cc(C[*:2])ccc2cc1C[*:1]; X1 = C(=CC[*:2])C[*:1]

Tests used:
[1] = test system: Acinetobacter baumannii (A. baumannii); assay type: cell-based; settings: microbroth dilution, 20-24 hours at 37° C.
Description: (§1) Antimicrobial Activity Assay: The following microbroth dilution protocol was adapted from CLSI to determine the minimum inhibitory concentration (MIC) of StAMPs. Briefly, Mueller-Hinton broth (MHB) or cation-adjusted Mueller-Hinton broth (MHB II) was prepared and autoclaved. Then, a colony of bacterial cells was picked and grown overnight in broth at 37° C. and then diluted and allowed to grow again for 3-4 hours. Serial dilutions of peptide stocks in water (10 μl) were prepared using clear round-bottom polypropylene 96-well plates. Then 90 μl of bacteria in broth was added to give a final inoculum of 5×10^5 CFU/ml. The plates were then covered with porous tape to reduce evaporation and incubated for 20-24 hours at 37° C. The MIC was the minimum peptide concentration at which no visible bacterial growth was observed.

[2] = test system: Klebsiella pneumoniae (K. pneumoniae); assay type: cell-based; settings: microbroth dilution, 20-24 hours at 37° C.
Description: as §1

[3] = test system: Escherichia coli (E. coli); assay type: cell-based; settings: microbroth dilution, 20-24 hours at 37° C.
Description: as §1

[4] = test system: Staphylococcus aureus (S. aureus); assay type: cell-based; settings: microbroth dilution, 20-24 hours at 37° C.
Description: as §1

[5] = test system: Pseudomonas aeruginosa (P. aeruginosa); assay type: cell-based; settings: microbroth dilution, 20-24 hours at 37° C.
Description: as §1

[6] = 48 hours cytotoxicity assay (CellTiter-Glo), liver toxicity; assay type: cell-based, human; settings: 48 hours of incubation, CellTiter-Glo; read-out: Inhibitory Concentration at 50% Cytotoxicity (IC50) Human Liver Cells (HepG2)
Outline: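 HepG2 cells in EMEM with 10% FBS, allowed to attach 4 h, then exposed to serially diluted StAMPs or vehicle for 48 h at 37 °C. Viability read by CellTiter-Glo luminescence.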

Row | Compound | Minimum Inhibitory Concentration (MIC) A. baumannii [1] | Minimum Inhibitory Concentration (MIC) K. pneumoniae [2] | Minimum Inhibitory Concentration (MIC) E. coli [3] | Minimum Inhibitory Concentration (MIC) S. aureus [4] | Minimum Inhibitory Concentration (MIC) P. aeruginosa [5] | IC50 [6]
1 | CC[C@H](C)[C@H](NC(=O)CN)C(=O)N[C@@H](Cc1ccccc1)C(=O)N[C@@H](CO)C(=O)N[C@@H](CCCCN)C(=O)N[C@@H](CC(C)C)C(=O)N[C@@H](C)C(=O)N[C@H]1CSCc2ccc3cc(ccc3c2)CSC[C@@H](C(=O)N[C@H](C(=O)N[C@@H](CO)C(=O)NCC(=O)N[C@@H](CC(C)C)C(=O)N[C@@H](CCCCN)C(=O)NCC(N)=O)[C@@H](C)CC)NC(=O)[C@H](CC(C)C)NC(=O)[C@H](CC(N)=O)NC(=O)[C@H](CCCCN)NC(=O)[C@H]([C@@H](C)CC)NC(=O)[C@H](CCCCN)NC(=O)[C@H](CCCCN)NC1=O [compound 67] (H-GIFSKLACKKIKNLCISGLKG-NH2; linker 8-15 via Naphthalene(2,6-diCH2)) | 4 µg/mL | 8 µg/mL | 4 µg/mL | >64 µg/mL | 32 µg/mL | 59 µg/mL (≈ 24.9 µM)
2 | CC[C@H](C)[C@H](NC(=O)CN)C(=O)N[C@@H](Cc1ccccc1)C(=O)N[C@@H](CO)C(=O)N[C@@H](CCCCN)C(=O)N[C@@H](CC(C)C)C(=O)N[C@@H](C)C(=O)NCC(=O)N[C@H]1CSCc2ccc3cc(ccc3c2)CSC[C@@H](C(=O)N[C@@H](CO)C(=O)NCC(=O)N[C@@H](CC(C)C)C(=O)N[C@@H](CCCCN)C(=O)NCC(N)=O)NC(=O)[C@H](CC(C)C)NC(=O)[C@H](CC(C)C)NC(=O)[C@H](CC(N)=O)NC(=O)[C@H](CCCCN)NC(=O)[C@H]([C@@H](C)CC)NC(=O)[C@H](CCCCN)NC1=O [compound 69] (H-GIFSKLAGCKIKNLLCSGLKG-NH2; linker 9-16 via Naphthalene(2,6-diCH2); N-terminus assumed) | 16 µg/mL | 32 µg/mL | 16 µg/mL | >64 µg/mL | >64 µg/mL | 52 µg/mL (≈ 22.6 µM)
3 | CC[C@H](C)[C@H](NC(=O)CN)C(=O)N[C@@H](Cc1ccccc1)C(=O)N[C@@H](CO)C(=O)N[C@@H](CCCCN)C(=O)N[C@H]1CSCc2ccc3cc(ccc3c2)CSC[C@@H](C(=O)N[C@@H](CC(C)C)C(=O)N[C@@H](CC(C)C)C(=O)N[C@H](C(=O)N[C@@H](CO)C(=O)NCC(=O)N[C@@H](CC(C)C)C(=O)N[C@@H](CCCCN)C(=O)NCC(N)=O)[C@@H](C)CC)NC(=O)[C@H](CCCCN)NC(=O)[C@H]([C@@H](C)CC)NC(=O)[C@H](CCCCN)NC(=O)[C@H](CCCCN)NC(=O)CNC(=O)[C@H](C)NC1=O [compound 64] (H-GIFSKCAGKKIKCLLISGLKG-NH2; linker 6-13 via Naphthalene(2,6-diCH2)) | 8 µg/mL | 16 µg/mL | 8 µg/mL | >64 µg/mL | >64 µg/mL | 53 µg/mL (≈ 22.9 µM)
4 | CC[C@H](C)[C@H](NC(=O)CN)C(=O)N[C@@H](Cc1ccccc1)C(=O)N[C@@H](CO)C(=O)N[C@@H](CCCCN)C(=O)N[C@@H](CC(C)C)C(=O)N[C@@H](C)C(=O)NCC(=O)N[C@@H](CCCCN)C(=O)N[C@@H](CCCCN)C(=O)N[C@H](C(=O)N[C@@H](CCCCN)C(=O)N[C@H]1CSCc2ccc(nc2)-c2ccc(cn2)CSC[C@@H](C(=O)NCC(N)=O)NC(=O)[C@H](CC(C)C)NC(=O)CNC(=O)[C@H](CO)NC(=O)[C@H]([C@@H](C)CC)NC(=O)[C@H](CC(C)C)NC(=O)[C@H](CC(C)C)NC1=O)[C@@H](C)CC [compound 81] (H-GIFSKLAGKKIKCLLISGLCG-NH2; linker 13-20 via 2,2'Bipyridine(5,5'-diCH2); N-terminus assumed) | 4 µg/mL | 8 µg/mL | 4 µg/mL | >64 µg/mL | 32 µg/mL | 57 µg/mL (≈ 24.5 µM)
5 | CC[C@H](C)[C@H](NC(=O)CN)C(=O)N[C@@H](Cc1ccccc1)C(=O)N[C@@H](CO)C(=O)N[C@@H](CCCCN)C(=O)N[C@@H](CC(C)C)C(=O)N[C@@H](C)C(=O)NCC(=O)N[C@H]1CSCc2ccc(nc2)-c2ccc(cn2)CSC[C@@H](C(=O)N[C@@H](CO)C(=O)NCC(=O)N[C@@H](CC(C)C)C(=O)N[C@@H](CCCCN)C(=O)NCC(N)=O)NC(=O)[C@H](CC(C)C)NC(=O)[C@H](CC(C)C)NC(=O)[C@H](CC(N)=O)NC(=O)[C@H](CCCCN)NC(=O)[C@H]([C@@H](C)CC)NC(=O)[C@H](CCCCN)NC1=O [compound 71] (H-GIFSKLAGCKIKNLLCSGLKG-NH2; linker 9-16 via 2,2'Bipyridine(5,5'-diCH2); N-terminus assumed) | 32 µg/mL | >64 µg/mL | 64 µg/mL | >64 µg/mL | >64 µg/mL | 360 µg/mL (≈ 155 µM)
6 | CC[C@H](C)[C@H](NC(=O)CN)C(=O)N[C@@H](Cc1ccccc1)C(=O)N[C@@H](CO)C(=O)N[C@@H](CCCCN)C(=O)N[C@@H](CC(C)C)C(=O)N[C@H]1CSCC=CCSC[C@@H](C(=O)N[C@@H](CCCCN)C(=O)N[C@@H](CC(N)=O)C(=O)N[C@@H](CC(C)C)C(=O)N[C@@H](CC(C)C)C(=O)N[C@H](C(=O)N[C@@H](CO)C(=O)NCC(=O)N[C@@H](CC(C)C)C(=O)N[C@@H](CCCCN)C(=O)NCC(=O)N[C@@H](C)C(=O)N[C@@H](CCCCN)C(=O)O)[C@@H](C)CC)NC(=O)[C@H](CCCCN)NC(=O)[C@H](CCCCN)NC(=O)CNC1=O [compound 100] (H-GIFSKLCGKKCKNLLISGLKGAK-OH; linker 7-11 via X1) | 16 µg/mL | >64 µg/mL | 32 µg/mL | >64 µg/mL | >64 µg/mL | > 200 µg/mL
7 | CC[C@H](C)[C@H](NC(=O)CN)C(=O)N[C@@H](Cc1ccccc1)C(=O)N[C@@H](CO)C(=O)N[C@@H](CCCCN)C(=O)N[C@@H](CC(C)C)C(=O)N[C@@H](C)C(=O)NCC(=O)N[C@@H](CCCCN)C(=O)N[C@@H](CCCCN)C(=O)N[C@H](C(=O)N[C@H]1CSCc2ccc3cc(ccc3c2)CSC[C@@H](C(=O)N[C@@H](CCCCN)C(=O)NCC(N)=O)NC(=O)CNC(=O)[C@H](CO)NC(=O)[C@H]([C@@H](C)CC)NC(=O)[C@H](CC(C)C)NC(=O)[C@H](CC(C)C)NC(=O)[C@H](CC(N)=O)NC1=O)[C@@H](C)CC [compound 78] (H-GIFSKLAGKKICNLLISGCKG-NH2; linker 12-19 via Naphthalene(2,6-diCH2); N-terminus assumed) | 16 µg/mL | 64 µg/mL | 16 µg/mL | >64 µg/mL | 64 µg/mL | 108 µg/mL (≈ 46.9 µM)
